Patent publication US8940771B2, “Organic compounds” (Novartis AG, priority 2007, dated 2015)

What follows are compounds tested against PI3Kδ (p85iSH2(461-568)-p110δ(2-1044)-His, BV1060) (Homo sapiens (Human), UniProt O00329) (assay: PI3K KinaseGlo assay, PI3Kdelta). Details: 1 μM ATP, alpha vs. delta selectivity table.
Assay type: biochemical

PI3Kδ (p85iSH2(461-568)-p110δ(2-1044)-His, BV1060), sequence (O00329 other isoform, or with tags, fused parts or gaps): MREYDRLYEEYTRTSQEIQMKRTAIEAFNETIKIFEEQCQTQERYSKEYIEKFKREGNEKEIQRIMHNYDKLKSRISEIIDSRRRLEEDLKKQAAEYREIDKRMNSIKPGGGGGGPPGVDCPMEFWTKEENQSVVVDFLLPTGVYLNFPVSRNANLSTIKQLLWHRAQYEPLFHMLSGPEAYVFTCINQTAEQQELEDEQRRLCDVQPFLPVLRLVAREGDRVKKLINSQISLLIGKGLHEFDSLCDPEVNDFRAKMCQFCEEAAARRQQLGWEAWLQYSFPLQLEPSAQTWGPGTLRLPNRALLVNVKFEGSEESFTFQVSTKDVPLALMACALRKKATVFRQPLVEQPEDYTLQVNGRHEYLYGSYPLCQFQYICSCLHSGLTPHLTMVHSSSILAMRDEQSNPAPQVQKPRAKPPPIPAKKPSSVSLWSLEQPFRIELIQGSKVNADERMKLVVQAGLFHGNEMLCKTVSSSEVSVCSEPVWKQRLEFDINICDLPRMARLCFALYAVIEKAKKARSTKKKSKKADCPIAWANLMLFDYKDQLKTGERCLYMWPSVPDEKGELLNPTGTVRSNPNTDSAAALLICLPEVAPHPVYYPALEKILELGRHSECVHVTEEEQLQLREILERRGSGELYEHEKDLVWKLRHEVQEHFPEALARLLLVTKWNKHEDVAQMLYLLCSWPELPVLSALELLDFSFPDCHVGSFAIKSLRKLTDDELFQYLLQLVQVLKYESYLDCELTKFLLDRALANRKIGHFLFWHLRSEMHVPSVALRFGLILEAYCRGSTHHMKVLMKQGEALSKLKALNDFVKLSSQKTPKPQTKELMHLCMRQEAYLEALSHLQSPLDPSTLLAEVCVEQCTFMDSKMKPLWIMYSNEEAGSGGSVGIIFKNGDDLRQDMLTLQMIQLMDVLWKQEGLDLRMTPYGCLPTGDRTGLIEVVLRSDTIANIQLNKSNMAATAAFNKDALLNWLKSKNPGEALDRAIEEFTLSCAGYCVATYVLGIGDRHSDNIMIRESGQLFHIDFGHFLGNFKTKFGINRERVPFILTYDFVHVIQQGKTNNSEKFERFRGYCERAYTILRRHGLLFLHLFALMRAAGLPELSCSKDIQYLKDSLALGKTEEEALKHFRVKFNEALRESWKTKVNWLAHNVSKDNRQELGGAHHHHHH

Compound | IC50 [nM]
Cc1nc(NC(=O)N2C[C@H](N(C)C)C[C@H]2C(N)=O)sc1-c1ccnc(C(C)(C)C)n1 [Example 70, (2S,4R)-4-Dimethylamino-pyrrolidine-1,2-dicarboxylic acid 2-amide 1-{[5-(2-tert-butyl-pyrimidin-4-yl)-4-methyl-thiazol-2-yl]-amide}] | 3450

These compounds were tested against PI3Kα (p85iSH2(461-568)-p110α(21-1068)-His, BV1075) (Homo sapiens (Human), UniProt P42336) (assay: PI3K KinaseGlo assay, PI3Kalpha). Details: KinaseGlo, 1 μM ATP, 10 nM enzyme, 30 mins.
PI3Kα (p85iSH2(461-568)-p110α(21-1068)-His, BV1075), sequence (P42336 other isoform, or with tags, fused parts or gaps): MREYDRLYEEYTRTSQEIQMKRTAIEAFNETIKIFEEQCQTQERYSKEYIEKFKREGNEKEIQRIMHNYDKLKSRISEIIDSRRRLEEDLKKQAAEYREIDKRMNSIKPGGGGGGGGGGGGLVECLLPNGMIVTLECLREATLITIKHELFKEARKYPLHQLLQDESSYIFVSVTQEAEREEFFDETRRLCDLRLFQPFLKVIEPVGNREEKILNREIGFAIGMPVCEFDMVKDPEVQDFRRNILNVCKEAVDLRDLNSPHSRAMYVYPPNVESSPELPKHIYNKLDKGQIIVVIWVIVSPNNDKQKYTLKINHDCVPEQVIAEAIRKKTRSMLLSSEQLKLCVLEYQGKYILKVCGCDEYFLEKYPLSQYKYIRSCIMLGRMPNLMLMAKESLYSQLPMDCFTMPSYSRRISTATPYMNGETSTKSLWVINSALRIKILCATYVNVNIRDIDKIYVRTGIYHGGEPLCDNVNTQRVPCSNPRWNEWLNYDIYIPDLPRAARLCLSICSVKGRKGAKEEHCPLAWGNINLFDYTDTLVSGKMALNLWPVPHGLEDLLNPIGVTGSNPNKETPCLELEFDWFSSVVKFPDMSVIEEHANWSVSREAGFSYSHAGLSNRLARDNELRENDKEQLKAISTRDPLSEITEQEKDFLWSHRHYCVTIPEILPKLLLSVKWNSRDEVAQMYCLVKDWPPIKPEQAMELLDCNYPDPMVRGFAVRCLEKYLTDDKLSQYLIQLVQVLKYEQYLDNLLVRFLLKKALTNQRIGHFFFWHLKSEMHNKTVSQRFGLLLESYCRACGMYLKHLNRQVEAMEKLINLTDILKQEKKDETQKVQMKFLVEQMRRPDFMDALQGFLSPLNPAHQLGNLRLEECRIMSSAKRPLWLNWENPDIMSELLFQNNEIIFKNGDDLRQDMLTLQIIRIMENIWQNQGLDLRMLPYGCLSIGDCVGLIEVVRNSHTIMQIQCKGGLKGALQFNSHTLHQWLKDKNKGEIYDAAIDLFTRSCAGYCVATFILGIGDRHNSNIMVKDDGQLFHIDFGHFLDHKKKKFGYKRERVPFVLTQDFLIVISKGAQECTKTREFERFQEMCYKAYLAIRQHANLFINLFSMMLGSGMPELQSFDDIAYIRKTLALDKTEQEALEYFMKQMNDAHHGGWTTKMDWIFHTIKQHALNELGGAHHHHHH
Assay type: biochemical

Compound | IC50 [nM]
Cc1nc(NC(=O)N2CCC[C@@]2(C)C(N)=O)sc1-c1ccnc(C2(C#N)CC2)c1 [Example 49, S)-2-Methyl-pyrrolidine-1,2-dicarboxylic acid 2-amide 1-({5-[2-(1-cyano-cyclopropyl)-pyridin-4-yl]-4-methyl-thiazol-2-yl}-amide] | 17
Cc1nc(NC(=O)N2CCC[C@@]2(C)C(N)=O)sc1-c1ccnc(C2(C(F)(F)F)CCC2)c1 [Example 48, S)-2-Methyl-pyrrolidine-1,2-dicarboxylic acid 2-amide 1-({4-methyl-5-[2-(1-trifluoromethyl-cyclobutyl)-pyridin-4-yl]-thiazol-2-yl}-amide] | 5
CCN(CC)c1cc(-c2cnc(NC(=O)N3CCC[C@@]3(C)C(N)=O)s2)ccn1 [Example 122, (S)-2-Methyl-pyrrolidine-1,2-dicarboxylic acid 2-amide 1-{[5-(2-diethylamino-pyridin-4-yl)-thiazol-2-yl]-amide}] | 50
Cc1nc(NC(=O)N2CCC[C@@]2(C)C(N)=O)sc1-c1ccnc(CC2CC2)n1 [Example 110, (S)-2-Methyl-pyrrolidine-1,2-dicarboxylic acid 2-amide 1-{[5-(2-cyclopropylmethyl-pyrimidin-4-yl)-4-methyl-thiazol-2-yl]-amide}] | 71
Cc1nc(NC(=O)N2CCC[C@@]2(CN(C)C)C(N)=O)sc1-c1ccnc(C(C)(C)C)n1 [Example 107, (R)-2-Dimethylaminomethyl-pyrrolidine-1,2-dicarboxylic acid 2-amide 1-{[5-(2-tert-butyl-pyrimidin-4-yl)-4-methyl-thiazol-2-yl]-amide}] | 44
Cc1nc(NC(=O)N2C[C@H](O)C[C@H]2C(N)=O)sc1-c1ccnc(C(C)(C)C)n1 [Example 3, (2S,4R)-4-hydroxy-pyrrolidine-1,2-dicarboxylic acid 2-amide 1-{[5-(2-tert-butyl-pyrimidin-4-yl)-4-methyl-thiazol-2-yl]-amide}triflouroacetate] | 13
Cc1nc(NC(=O)N2C[C@H](O)C[C@@]2(C)C(N)=O)sc1-c1ccnc(C(C)(C)C)n1 [Example 65, (2S,4R)-4-Hydroxy-2-methyl-pyrrolidine-1,2-dicarboxylic acid 2-amide 1-{[5-(2-tert-butyl-pyrimidin-4-yl)-4-methyl-thiazol-2-yl]-amide}] | 31
[2H]C([2H])([2H])C(c1nccc(-c2sc(NC(=O)N3CCC[C@@]3(C)C(N)=O)nc2C)n1)(C([2H])([2H])[2H])C([2H])([2H])[2H] [Example 111] | 52
Cc1nc(NC(=O)N2C[C@@H](O)C[C@H]2C(N)=O)sc1-c1ccnc(C(C)(C)C)c1 [Example 7, (2S,4S)-4-hydroxy-pyrrolidine-1,2-dicarboxylic acid 2-amide 1-{[5-(2-tert-butyl-pyridin-4-yl)-4-methyl-thiazol-2-yl]-amide}] | 15
CC(C)(c1cc(-c2cnc(NC(=O)N3CCC[C@@]3(C)C(N)=O)s2)ccn1)C(F)(F)F [Example 119, S)-2-Methyl-pyrrolidine-1,2-dicarboxylic acid 2-amide 1-({5-[2-(2,2,2-trifluoro-1,1-dimethyl-ethyl)-pyridin-4-yl}-thiazol-2-yl]-amide] | 8
Cc1nc(NC(=O)N2CCC[C@@]2(C)C(N)=O)sc1-c1ccnc(-n2ccnc2C)n1 [Example 102, S)-2-Methyl-pyrrolidine-1,2-dicarboxylic acid 2-amide 1-({4-methyl-5-[2-(2-methyl-imidazol-1-yl)-pyrimidin-4-yl]-thiazol-2-yl}-amide] | 210
Cc1nc(NC(=O)N2C[C@H]3C[C@H]3[C@H]2C(N)=O)sc1-c1ccnc(C(C)(C)C)n1 [Example 11, (1R,2S,5S)-3-aza-bicyclo[3.1.0]hexane-2,3-dicarboxylic acid 2-amide 3-{[5-(2-tert-butyl-pyrimidin-4-yl)-4-methyl-thiazol-2-yl]-amide}] | 48
Cc1nc(NC(=O)N2CCC[C@@]2(C)C(N)=O)sc1-c1ccnc(N(C)CCN(C)C)n1 [Example 80, (S)-2-Methyl-pyrrolidine-1,2-dicarboxylic acid 2-amide 1-[(5-{2-[(2-dimethylamino-ethyl)-methyl-amino]-pyrimidin-4-yl}-4-methyl-thiazol-2-yl)-amide]] | 250
COc1ccc(C2(c3cc(-c4sc(NC(=O)N5CCC[C@@]5(C)C(N)=O)nc4C)ccn3)CC2)cc1 [Example 54, (S)-2-Methyl-pyrrolidine-1,2-dicarboxylic acid 2-amide 1-[(5-{2-[1-(4-methoxy-phenyl)-cyclopropyl]-pyridin-4-yl}-4-methyl-thiazol-2-yl)-amide]] | 190
CCCc1nccn1-c1cc(-c2sc(NC(=O)N3CC(O)CC3C(N)=O)nc2C)ccc1S(C)(=O)=O [Example 1, (2S,4R)-4-hydroxy-pyrrolidine-1,2-dicarboxylic acid 2-amide 1-({5-[4-methanesulfonyl-3-(2-propyl-imidazol-1-yl)-phenyl]-4-methyl-thiazol-2-yl}-amide)triflouroacetate] | 170
Cc1nc(NC(=O)N2CCC[C@]2(C(N)=O)C(F)F)sc1-c1ccnc(C(C)(C)C)n1 [Example 114, (S)-2-Difluoromethyl-pyrrolidine-1,2-dicarboxylic acid 2-amide 1-{[5-(2-tert-butyl-pyrimidin-4-yl)-4-methyl-thiazol-2-yl]-amide}] | 130
COC[C@@]1(C(N)=O)CCCN1C(=O)Nc1nc(C)c(-c2ccnc(C(C)(C)C)n2)s1 [Example 112, (R)-2-Methoxymethyl-pyrrolidine-1,2-dicarboxylic acid 2-amide 1-{[5-(2-tert-butyl-pyrimidin-4-yl)-4-methyl-thiazol-2-yl]-amide}] | 49
CSc1nccc(-c2sc(NC(=O)N3CCC[C@@]3(C)C(N)=O)nc2C)n1 [Example 74, (S)-2-Methyl-pyrrolidine-1,2-dicarboxylic acid 2-amide 1-{[4-methyl-5-(2-methylsulphanyl-pyrimidin-4-yl)-thiazol-2-yl]-amide}] | 130
CCN(CCOC)c1nccc(-c2sc(NC(=O)N3CCC[C@@]3(C)C(N)=O)nc2C)n1 [Example 101, (S)-2-Methyl-pyrrolidine-1,2-dicarboxylic acid 2-amide 1-[(5-{2-[ethyl-(2-methoxy-ethyl)-amino]-pyrimidin-4-yl}-4-methyl-thiazol-2-yl)-amide]] | 99
CC1(c2cc(-c3sc(NC(=O)N4CCC[C@@]4(C)C(N)=O)nc3Cl)ccn2)CC1 [Example 129, S)-2-Methyl-pyrrolidine-1,2-dicarboxylic acid 2-amide 1-({4-chloro-5-[2-(1-methyl-cyclopropyl)-pyridin-4-yl]-thiazol-2-yl}-amide] | 24
Cc1nc(NC(=O)N2CCC[C@@]2(C)C(N)=O)sc1-c1ccnc(C2(C(F)(F)F)CC2)c1 [Example 46, S)-2-Methyl-pyrrolidine-1,2-dicarboxylic acid 2-amide 1-({4-methyl-5-[2-(1-trifluoromethyl-cyclopropyl)-pyridin-4-yl]-thiazol-2-yl}-amide] | 9
CC1(c2cc(-c3cnc(NC(=O)N4CCC[C@@]4(C)C(N)=O)s3)ccn2)CC1 [Example 117, S)-2-Methyl-pyrrolidine-1,2-dicarboxylic acid 2-amide 1-({5-[2-(1-methyl-cyclopropyl)-pyridin-4-yl]-thiazol-2-yl}amide] | 26
Cc1nc(NC(=O)N2CCC[C@@]2(C)C(N)=O)sc1-c1ccnc(C(C)(C)C(F)(F)F)c1 [Example 47, S)-2-Methyl-pyrrolidine-1,2-dicarboxylic acid 2-amide 1-({4-methyl-5-[2-(2,2,2-trifluoro-1,1-dimethyl-ethyl)-pyridin-4-yl]-thiazol-2-yl}-amide] | 40
CCN(CC)c1nccc(-c2sc(NC(=O)N3CC[C@@H]4C[C@@]43C(N)=O)nc2C)n1 [Example 88, (1S,5R)-2-Aza-bicyclo[3.1.0]hexane-1,2-dicarboxylic acid 1-amide 2-{[5-(2-diethylamino-pyrimidin-4-yl)-4-methyl-thiazol-2-yl]-amide}] | 76
Cc1nc(NC(=O)N2CC(F)(F)C[C@H]2C(N)=O)sc1-c1ccnc(C2(C)CC2)c1 [Example 59, S)-4,4-Difluoro-pyrrolidine-1,2-dicarboxylic acid 2-amide 1-({4-methyl-5-[2-(1-methyl-cyclopropyl)-pyridin-4-yl]-thiazol-2-yl}-amide] | 71
COc1ccc(C(C)(C)c2cc(-c3cnc(NC(=O)N4CCC[C@@]4(C)C(N)=O)s3)ccn2)cc1 [Example 124, (S)-2-Methyl-pyrrolidine-1,2-dicarboxylic acid 2-amide 1-[(5-{2-[1-(4-methoxy-phenyl)-1-methyl-ethyl]-pyridin-4-yl}-thiazol-2-yl)-amide]] | 28
CCN(Cc1ccccc1)c1nccc(-c2sc(NC(=O)N3CCC[C@@]3(C)C(N)=O)nc2C)n1 [Example 98] | 140
Cc1nc(NC(=O)N2CCC[C@@]2(C)C(N)=O)sc1-c1ccnc(C2(C)CC2)c1 [Example 40, S)-2-Methyl-pyrrolidine-1,2-dicarboxylic acid 2-amide 1-({4-methyl-5-[2-(1-methyl-cyclopropyl)-pyridin-4-yl]-thiazol-2-yl}-amide] | 37

Same assay, conditions: KinaseGlo, 1 μM ATP; alpha vs. delta selectivity table

Compound | IC50 [nM]
Cc1nc(NC(=O)N2CC[C@H](O)[C@H]2C(N)=O)sc1-c1ccnc(C(C)(C)C)n1.O=C(O)C(F)(F)F [Example 9, (2S,3S)-3-hydroxy-pyrrolidine-1,2-dicarboxylic acid 2-amide 1-{[5-(2-tert-butyl-pyrimidin-4-yl)-4-methyl-thiazol-2-yl]-amide}triflouroacetate] | 12
Cc1nc(NC(=O)N2C[C@H](N(C)C)C[C@H]2C(N)=O)sc1-c1ccnc(C(C)(C)C)n1 [Example 70, (2S,4R)-4-Dimethylamino-pyrrolidine-1,2-dicarboxylic acid 2-amide 1-{[5-(2-tert-butyl-pyrimidin-4-yl)-4-methyl-thiazol-2-yl]-amide}] | 14

Same assay, conditions: ratio of PI3Kdelta IC50 to PI3Kalpha IC50

Compound | Selectivity PI3Kalpha vs. PI3Kdelta
Cc1nc(NC(=O)N2CC[C@H](O)[C@H]2C(N)=O)sc1-c1ccnc(C(C)(C)C)n1.O=C(O)C(F)(F)F [Example 9, (2S,3S)-3-hydroxy-pyrrolidine-1,2-dicarboxylic acid 2-amide 1-{[5-(2-tert-butyl-pyrimidin-4-yl)-4-methyl-thiazol-2-yl]-amide}triflouroacetate] | 38-fold
Cc1nc(NC(=O)N2C[C@H](N(C)C)C[C@H]2C(N)=O)sc1-c1ccnc(C(C)(C)C)n1 [Example 70, (2S,4R)-4-Dimethylamino-pyrrolidine-1,2-dicarboxylic acid 2-amide 1-{[5-(2-tert-butyl-pyrimidin-4-yl)-4-methyl-thiazol-2-yl]-amide}] | 246-fold
